Reference: patent publication US5650173A, “Preparation of biodegradable microparticles containing a biologically active agent” (Alkermes Controlled Therapeutics Inc. II, priority 1996, dated 1997)
Entries after “also recorded” stand apart in the source; their conditions may differ.

Legend:
[1] = In Vitro Dissolution of norethindrone (NET) microparticles; assay type: physicochemical; conditions: ethyl acetate alone as solvent; b93: extreme ethyl acetate contents in quench; quench volume varied
[2] = Solubility of risperidone in receiving medium for in vitro dissolution; conditions: 50 mm tris buffer, pH 7.4, aqueous buffer
From the text: Real time and accelerated methodologies were used. The equipment consisted of a Hanson research 6-cell USP paddle (Method II) dissolution apparatus interfaced with a spectrophotometer and data station. Receiving media were continuously recirculated from each cell to flow cells inside the spectrophotometer. The absorbance of the receiving media was monitored at 236 nm for quantification of risperidone.
The real time model measured the release rates of microparticles into a receiving medium consisting of 50 mM tris buffer at pH 7.4 at 37° C. […] The amount of risperidone was kept below 20% of saturation to provide infinite sink conditions.

Compound	in vitro release rate from microparticles [1]	solubility [2] [µg/mL]
C#C[C@]1(O)CC[C@H]2[C@@H]3CCC4=CC(=O)CC[C@@H]4[C@H]3CC[C@@]21C [NET, norethindrone]	Higher than normal release rates; also recorded: quicker release; also recorded: varies slightly	
Cc1nc2n(c(=O)c1CCN1CCC(c3noc4cc(F)ccc34)CC1)CCCC2 [Risperidone, risperidone]		≥ 500
